Tests used:
[1] = test system: A549 cells; test: MTT cell viability, A549; format: cell-based, human; conditions: 48 h, Fig. 7A; for effect of ATP on viability in HN-ID media: HN-immunodepleted media, versus no ATP; for effect on cell viability: control media, three experiments in triplicate
Description: Human NSCLC cell lines, A549 (ATCC CCL‐185) and H1299 (ATCC CRL‐5803), were purchased from the American Type Culture Collection (ATCC, Manassas, VA, USA). Cells were seeded as we reported earlier in 5 mL HyClone Dulbecco's modified Eagle's medium/nutrient mixture F‐12 (DMEM/F12) (GE Healthcare Life Sciences, Pittsburgh, PA, USA), supplemented with 10% Fetalgro bovine growth serum (FBS; RMBIO, Missoula, MT, USA), 50 U·mL^−1 penicillin, and […] streptomycin (Invitrogen, Life Technologies, Carlsbad, CA, USA) in 25‐cm^2 tissue culture flasks, and allowed to grow overnight in an incubator at 37 °C, 95% humidity, and 5% CO2. The cells were counted after trypan blue staining, with a hemocytometer.
The 3‐(4,5‐dimethylthiazol‐2‐yl)‐2,5‐diphenyl‐tetrazolium bromide (MTT) reduction assay (Sigma‐Aldrich), used to measure cell viability, was carried out as we reported earlier. Cells were seeded in 96‐well plates as indicated in 200 μL 10% FBS‐supplemented media per well and maintained overnight at 95% humidity and 5% CO2. After an overnight incubation, the media were replaced with 200 μL serum‐free media, and the cells were further incubated, without or with different treatments, for 24, 48, or 72 h. The final concentration of DMSO in each well never exceeded 0.1%. The cells were then incubated for 4 h with MTT (0.5 mg·mL^−1) in the dark. The media were carefully removed, and DMSO (100 μL) was added to dissolve the formazan crystals. The absorbance was measured at 570 nm in a plate reader. Untreated cells or wells containing only DMSO and media were used as a positive and negative control, respectively. Statistical analysis was conducted using […] PRISM version 8.4.3 for Windows. Significant values were considered at P < 0.05 and more significant values at P < 0.01, compared with the control.
Conditioned media were immunodepleted (ID) according to the methods previously described and our recently published report. Briefly, specific antibodies were bound to ELISA wells overnight (1 : 1000 dilution). The wells were then blocked and washed, then 300 μL of the conditioned medium (0.5 μg·μL^−1) treated as indicated, 72 h postserum starvation, was incubated with the antibodies bound to ELISA wells for 24 h. The ID media were then carefully removed and analyzed for the presence of the target protein or peptide by ELISA. The same amount of protein (3 µL of 600 µg·mL^−1 total protein) of each sample was analyzed in the experiments. Significant depletion (95–100%) was observed upon using each of the antibodies employed in this study.
Since addition of ATP appears to increase binding of HN to Aβ, and conversely, decreases the interaction of Aβ with AChE (Figs 3, 4, 5, 6), we tested the effect of added ATP on A549 and H1299 cell viability (Fig. 7). Exogenously added ATP at either 100 µM or 1 mM had no effect on viability of either A549 (Fig. 7A) or H1299 cells (Fig. 7B). […] To determine the effect of ID of AChE or HN in the absence or presence of added ATP on cell viability, ID media were prepared by first seeding 0.2 × 10^5 cells per well in 96‐well plates in 10% FBS‐supplemented media. The next day, the cells were incubated in serum‐free medium for 72 h, then ID of AChE or HN as described in Materials and methods. For cell viability assays, cells were seeded in 96‐well plates at 0.2 × 10^5 cells per well in 200 µL 10% FBS‐supplemented media followed by incubation in serum‐free medium for 12 h, then treated with the ID media for 48 h. […]

[2] = test system: Aβ cytotoxicity; conditions: cited from earlier work
Text: Almost all types of cells produce amyloid beta (Aβ), a peptide well recognized for its role in the development and progression of different stages of Alzheimer's disease (AD). The Aβ peptide is ~ 4 kDa and derived from the sequential processing of the higher molecular weight amyloid precursor protein by two membrane‐bound endoproteases, β‐ and γ‐secretase. Different C‐terminal Aβ heterogeneity results from processing by γ‐secretase, where Aβ40 represents the most abundant isoform (~ 90%) as compared to Aβ42 (~ 10%). Self‐assembled Aβ40/42 peptides into amyloid fib ... || Soluble oligomers of proteins implicated in different diseases are primarily thought to be the main toxic form as opposed to the larger fibrillar assemblies. Aβ regions containing Tyr and Ser (H6DSGY10 and G25SNKG29) (Fig. 1) along with post‐translational modifications of these regions, have been implicated in misfolding, oligomerization, or fibril formation of Aβ [5, 10, 11, 16, 41]. […] Aβ proteins a ... || Acetylcholinesterase (AChE) is an enzyme known for its role in terminating acetylcholine‐mediated neurotransmission at the synaptic cleft. The majority of the cortical AChE in the Alzheimer's brain is mainly associated with the amyloid core of senile plaques. […]

[3] = test system: Aβ42; conditions: binds directly to Aβ42; cited from earlier work
Text: Almost all types of cells produce amyloid beta (Aβ), a peptide well recognized for its role in the development and progression of different stages of Alzheimer's disease (AD). The Aβ peptide is ~ 4 kDa and derived from the sequential processing of the higher molecular weight amyloid precursor protein by two membrane‐bound endoproteases, β‐ and γ‐secretase. Different C‐terminal Aβ heterogeneity results from processing by γ‐secretase, where Aβ40 represents the most abundant isoform (~ 90%) as compared to Aβ42 (~ 10%). Self‐assembled Aβ40/42 peptides into amyloid fib ... || Amino acid residues involved in direct interactions between HN and Aβ40 were identified previously by molecular modeling. The specific epitopes at the binding interface between HN and Aβ40 were identified, by proteolytic epitope excision and extraction in addition to affinity–mass spectrometric data analysis, to be HN (5–15) and Aβ (17–28). […] Inhibiting the 17–28 region of Aβ reduced aggregation of the neurotoxic amyloid fibrils and related cytotoxicity in SH‐SY5Y, a human neuroblastoma cell ... || Acetylcholinesterase (AChE) is an enzyme known for its role in terminating acetylcholine‐mediated neurotransmission at the synaptic cleft. The majority of the cortical AChE in the Alzheimer's brain is mainly associated with the amyloid core of senile plaques. […]

| Molecule | effect of ATP on viability in AChE-depleted media ([1]; AChE-immunodepleted media) | effect of ATP on viability in HN-ID media ([1]; ATP 100 µM) | effect on cell viability ([1]; ATP 100 µM) | effect of ATP on viability in HN-ID media ([1]; ATP 1 mM) | effect on cell viability ([1]; ATP 1 mM) | effect on Aβ-mediated cytotoxicity [2] | antioligomeric activity [3] |
| --- | --- | --- | --- | --- | --- | --- | --- |
| Nc1ncnc2c1ncn2[C@@H]1O[C@H](COP(=O)(O)OP(=O)(O)OP(=O)(O)O)[C@@H](O)[C@H]1O [ATP, Adenosine triphosphate] | did not affect cell viability | No change in cell viability | no effect | No change in cell viability | no effect | protective |  |
| Humanin [HN] |  |  |  |  |  |  | exhibit antioligomeric activity |

Source: article PMC7714071, “Interaction of amyloid beta with humanin and acetylcholinesterase is modulated by ATP” (FEBS Open Bio, 2020)
